# Data reported in ChEMBL document CHEMBL3885881, “DrugMatrix”.
# Species on record: Rattus norvegicus
# Assay: DrugMatrix - Regimen: Daily Repeat
# Assay type: toxicity, organism-based, Sprague-Dawley
# Set-up: regimen Daily Repeat, gender Male, age 6-8 weeks
# Settings: in vivo, ip, 50 mg/kg, route intraperitoneal, dose level High, […]; for ABSOLUTE BASOPHIL / ABSOLUTE EOSINOPHIL / ABSOLUTE LYMPHOCYTE / ABSOLUTE MONOCYTE / ABSOLUTE SEGMENTED NEUTROPHIL / BASOPHIL / EOSINOPHIL / ERYTHROCYTE COUNT / HEMATOCRIT / HEMOGLOBIN / LEUKOCYTE COUNT / LYMPHOCYTE / MEAN CORPUSCULAR HEMOGLOBIN / MEAN CORPUSCULAR HEMOGLOBIN CONCENTRATION / MEAN CORPUSCULAR VOLUME / MONOCYTE / NEUTROPHIL / NUCLEATED RED BLOOD CELLS / PLATELET COUNT: tissue Blood; for ALANINE AMINOTRANSFERASE / ALBUMIN / ALKALINE PHOSPHATASE / ASPARTATE AMINOTRANSFERASE / BLOOD UREA NITROGEN / CARBON DIOXIDE / CHLORIDE / CHOLESTEROL / CREATININE / GLUCOSE / LACTATE DEHYDROGENASE / LIPASE / PHOSPHORUS / POTASSIUM / SODIUM / TOTAL BILIRUBIN / TOTAL PROTEIN / URIC ACID: tissue Plasma
smiles,measurement,setting,value
ClC(Cl)=C(Cl)C(Cl)=C(Cl)Cl [HEXACHLOROBUTADIENE],ABSOLUTE BASOPHIL,"72 h, time 3 day",0 CELLS/uL
same,ABSOLUTE EOSINOPHIL,"72 h, time 3 day",265.33 CELLS/uL
same,ABSOLUTE LYMPHOCYTE,"72 h, time 3 day",14659.33 CELLS/uL
same,ABSOLUTE MONOCYTE,"72 h, time 3 day",513.33 CELLS/uL
same,ABSOLUTE SEGMENTED NEUTROPHIL,"72 h, time 3 day",2862 CELLS/uL
same,BASOPHIL,"72 h, time 3 day",0%
same,EOSINOPHIL,"72 h, time 3 day",1.33%
same,ERYTHROCYTE COUNT,"72 h, time 3 day",6.15 x10E6/uL
same,HEMATOCRIT,"72 h, time 3 day",36.87%
same,HEMOGLOBIN,"72 h, time 3 day",13.3 G/DL
same,LEUKOCYTE COUNT,"72 h, time 3 day",18.3 x10E3/uL
same,LYMPHOCYTE,"72 h, time 3 day",80.67%
same,MEAN CORPUSCULAR HEMOGLOBIN,"72 h, time 3 day",21.63 pg
same,MEAN CORPUSCULAR HEMOGLOBIN CONCENTRATION,"72 h, time 3 day",36.1 G/DL
same,MEAN CORPUSCULAR VOLUME,"72 h, time 3 day",60 fL
same,MONOCYTE,"72 h, time 3 day",2.67%
same,NEUTROPHIL,"72 h, time 3 day",15.33%
same,NUCLEATED RED BLOOD CELLS,"72 h, time 3 day",0 /100WBC
same,PLATELET COUNT,"72 h, time 3 day",1031 x10E3/uL
same,ALANINE AMINOTRANSFERASE,"72 h, time 3 day",36.33 u/L
same,ALBUMIN,"72 h, time 3 day",4.23 G/DL
same,ALKALINE PHOSPHATASE,"72 h, time 3 day",328.33 u/L
same,ASPARTATE AMINOTRANSFERASE,"72 h, time 3 day",101 u/L
same,BLOOD UREA NITROGEN,"72 h, time 3 day",11.67 mg/dL
same,CARBON DIOXIDE,"72 h, time 3 day",30.33 mmol/L
same,CHLORIDE,"72 h, time 3 day",102 MEQ/L
same,CHOLESTEROL,"72 h, time 3 day",84.67 mg/dL
same,CREATININE,"72 h, time 3 day",0.16 mg/dL
same,GLUCOSE,"72 h, time 3 day",173 mg/dL
same,LACTATE DEHYDROGENASE,"72 h, time 3 day",166 u/L
same,LIPASE,"72 h, time 3 day",9.67 u/L
same,PHOSPHORUS,"72 h, time 3 day",11.6 mg/dL
same,POTASSIUM,"72 h, time 3 day",6.25 MEQ/L
same,SODIUM,"72 h, time 3 day",147.3 MEQ/L
same,TOTAL BILIRUBIN,"72 h, time 3 day",0.13 mg/dL
same,TOTAL PROTEIN,"72 h, time 3 day",6.3 G/DL
same,URIC ACID,"72 h, time 3 day",2.6 mg/dL
same,ABSOLUTE BASOPHIL,"120 h, time 5 day",0 CELLS/uL
same,ABSOLUTE EOSINOPHIL,"120 h, time 5 day",230 CELLS/uL
same,ABSOLUTE LYMPHOCYTE,"120 h, time 5 day",9645 CELLS/uL
same,ABSOLUTE MONOCYTE,"120 h, time 5 day",302 CELLS/uL
same,ABSOLUTE SEGMENTED NEUTROPHIL,"120 h, time 5 day",1323 CELLS/uL
same,BASOPHIL,"120 h, time 5 day",0%
same,EOSINOPHIL,"120 h, time 5 day",2%
same,ERYTHROCYTE COUNT,"120 h, time 5 day",5.76 x10E6/uL
same,HEMATOCRIT,"120 h, time 5 day",36.65%
same,HEMOGLOBIN,"120 h, time 5 day",13.3 G/DL
same,LEUKOCYTE COUNT,"120 h, time 5 day",11.5 x10E3/uL
same,LYMPHOCYTE,"120 h, time 5 day",84.5%
same,MEAN CORPUSCULAR HEMOGLOBIN,"120 h, time 5 day",23.1 pg
same,MEAN CORPUSCULAR HEMOGLOBIN CONCENTRATION,"120 h, time 5 day",36.25 G/DL
same,MEAN CORPUSCULAR VOLUME,"120 h, time 5 day",63.6 fL
same,MONOCYTE,"120 h, time 5 day",2.5%
same,NEUTROPHIL,"120 h, time 5 day",11%
same,NUCLEATED RED BLOOD CELLS,"120 h, time 5 day",0 /100WBC
same,PLATELET COUNT,"120 h, time 5 day",1216 x10E3/uL
same,ALANINE AMINOTRANSFERASE,"120 h, time 5 day",39 u/L
same,ALBUMIN,"120 h, time 5 day",4.3 G/DL
same,ALKALINE PHOSPHATASE,"120 h, time 5 day",279.5 u/L
same,ASPARTATE AMINOTRANSFERASE,"120 h, time 5 day",100.5 u/L
same,BLOOD UREA NITROGEN,"120 h, time 5 day",11.5 mg/dL
same,CARBON DIOXIDE,"120 h, time 5 day",32.5 mmol/L
same,CHLORIDE,"120 h, time 5 day",101 MEQ/L
same,CHOLESTEROL,"120 h, time 5 day",106 mg/dL
same,CREATININE,"120 h, time 5 day",0.19 mg/dL
same,GLUCOSE,"120 h, time 5 day",171.5 mg/dL
same,LACTATE DEHYDROGENASE,"120 h, time 5 day",160.5 u/L
same,LIPASE,"120 h, time 5 day",9.5 u/L
same,PHOSPHORUS,"120 h, time 5 day",13.95 mg/dL
same,POTASSIUM,"120 h, time 5 day",6 MEQ/L
same,SODIUM,"120 h, time 5 day",147.1 MEQ/L
same,TOTAL BILIRUBIN,"120 h, time 5 day",0.2 mg/dL
same,TOTAL PROTEIN,"120 h, time 5 day",6.6 G/DL
same,URIC ACID,"120 h, time 5 day",1.75 mg/dL
same,ABSOLUTE BASOPHIL,time 14 day,0 CELLS/uL
same,ABSOLUTE EOSINOPHIL,time 14 day,146.4 CELLS/uL
same,ABSOLUTE LYMPHOCYTE,time 14 day,11678.6 CELLS/uL
same,ABSOLUTE MONOCYTE,time 14 day,306.2 CELLS/uL
same,ABSOLUTE SEGMENTED NEUTROPHIL,time 14 day,1488.8 CELLS/uL
same,BASOPHIL,time 14 day,0%
same,EOSINOPHIL,time 14 day,1.2%
same,ERYTHROCYTE COUNT,time 14 day,6.11 x10E6/uL
same,HEMATOCRIT,time 14 day,35.9%
same,HEMOGLOBIN,time 14 day,13.2 G/DL
same,LEUKOCYTE COUNT,time 14 day,13.62 x10E3/uL
same,LYMPHOCYTE,time 14 day,86.4%
same,MEAN CORPUSCULAR HEMOGLOBIN,time 14 day,21.6 pg
same,MEAN CORPUSCULAR HEMOGLOBIN CONCENTRATION,time 14 day,36.82 G/DL
same,MEAN CORPUSCULAR VOLUME,time 14 day,58.64 fL
same,MONOCYTE,time 14 day,2.2%
same,NEUTROPHIL,time 14 day,10.2%
same,NUCLEATED RED BLOOD CELLS,time 14 day,0 /100WBC
same,PLATELET COUNT,time 14 day,1058.6 x10E3/uL
same,ALANINE AMINOTRANSFERASE,time 14 day,31.2 u/L
same,ALBUMIN,time 14 day,4.2 G/DL
same,ALKALINE PHOSPHATASE,time 14 day,238.6 u/L
same,ASPARTATE AMINOTRANSFERASE,time 14 day,99.6 u/L
same,BLOOD UREA NITROGEN,time 14 day,13.8 mg/dL
same,CARBON DIOXIDE,time 14 day,30.8 mmol/L
same,CHLORIDE,time 14 day,102 MEQ/L
same,CHOLESTEROL,time 14 day,83.6 mg/dL
same,CREATININE,time 14 day,0.2 mg/dL
same,GLUCOSE,time 14 day,149.2 mg/dL
same,LACTATE DEHYDROGENASE,time 14 day,133.2 u/L
same,LIPASE,time 14 day,10.4 u/L
same,PHOSPHORUS,time 14 day,9.96 mg/dL
same,POTASSIUM,time 14 day,5.75 MEQ/L
same,SODIUM,time 14 day,145.2 MEQ/L
same,TOTAL BILIRUBIN,time 14 day,0.18 mg/dL
same,TOTAL PROTEIN,time 14 day,6.18 G/DL
same,URIC ACID,time 14 day,1 mg/dL
